US7531355B2, “Methods and compositions for smooth muscle reconstruction” (The Regents of the University of California, priority 2005, dated 2009)

Key:
[1] = test system: smooth muscle cells differentiated from ADSCs; experiment: Smooth muscle contraction in vitro assay (collagen gel); type: cell-based
Experimental: (§1) A mixture of 50% collagen solution (Vitrogen), 25% 4×DMEM with supplemented sodium bicarbonate prepared from powder (Gibco), ˜5 μl volume of glass bead (120-150 μm soda lime microspheres in light blue color) were added to approximately 5×10^5 cells (smooth muscle cells differentiated from ADSCs, although other cell types were utilized as negative controls) to a total volume of 400 μl was prepared on ice. The slurry was transferred to a 24-well plate (with calculated resulting thickness of around 2 mm) and the gel was allowed to polymerize in the 37° C. incubator overnight. Appropriate cell culture medium was added the next day to supplement cell growth, e,.g., smooth muscle medium was added to smooth muscle cells or adipogenic medium was added to adipose cells. The gel was incubated again for another night.
(§2) The following day (2 days after casting the gel) the gel was partially released (i.e., about 280° around the circumference of the well) from the tissue culture well by gently pulling the gel away from the side of the well with a pipette. Carbachol (an acetylcholine agonist) was added to the partially released gel. Response to addition of the drug was monitored by use of a microscope connected to a real-time camera.
Pictures were taken before the gel was released at marked fields. The gel was released with a pipette tip about 280° around the wall of the well. […]

undifferentiated PLA = experiment: Smooth muscle contraction in vitro assay (collagen gel), control cells; type: cell-based
Experimental: as §1, §2
(§3) Murine NIH 3T3 (fibroblasts ) or undifferentiated PLA cells were run concurrently as controls.
(§4) Pictures were taken before the gel was released at marked fields. […]

fibroblasts (NIH 3T3) = experiment: as above; type: cell-based, Murine; conditions: control cells NIH 3T3
Experimental: as §1, §2, §3, §4

CC(C)NCC(O)COc1cccc2ccccc12 (stereo not drawn) [Propranolol]
effect on contractile response to isoproterenol ([1]; added beforehand): reduced the contractile response

CNC[C@H](O)c1cccc(O)c1 [Phenylephrine]
contractile response of gel to the agent ([1]; agent added to partially released gel): shown to contract gels

CC(C)NCC(O)c1ccc(O)c(O)c1 (stereo not drawn) [isoproterenol]
contractile response of gel to the agent (undifferentiated PLA): no response | contractile response of gel to the agent (fibroblasts (NIH 3T3)): no response

C[N+](C)(C)CCOC(N)=O [Carbachol]
contractile response of gel to the agent (undifferentiated PLA): very weak response | contractile response of gel to the agent (fibroblasts (NIH 3T3)): very weak response
